In patent US20250381242A1 (INVAIO SCIENCES, INC., priority 2024, published 2025):
No end group written: not given here.

Legend:
A. tumefaciens = conditions: 24 h, 10 μM
X. citri = experiment: Bacterial growth inhibition by OD600 absorbance, X. citri; type: cell-based, X. citri subsp. citri (ATCC 49118); conditions: peptide 10 μM, 24 hours at 30° C., OD 600 nm
Method: (§1) Antimicrobial activity of antimicrobial peptides was tested against the agricultural microbial pests A. tumefaciens, E. amylovora, E. coli, and X. citri, using OD absorbance measurement to detect bacterial growth.
(§2) Antimicrobial peptides were synthesized using solid phase peptide synthesis method and resuspended in 10% DMSO to a 1 mM stock concentration. The stock solution was aliquoted in cryovials and stored at −80° C.
(§3) An aliquot of 198 μl of the bacterial culture was added to each well in a 96-well plate and 2 μl of a 1 mM peptide stock solution was added to each well, for a final treatment concentration of 10 μM of a given peptide. Media only wells were included to control for contamination. The positive controls were 50 μg/ml oxytetracycline hydrochloride and 500 μg/ml streptomycin sulfate. A 0.1% DMSO treatment was included as a negative control.
(§4) An initial absorbance reading of the bacterial suspensions was taken at 600 nm. Then, the bacteria were grown in an incubator at 30° C. (A. tumefaciens, E. amylovora, X. citri) or 37° C. (E. coli) for 24 hours, after which the final absorbance reading was measured. Using the initial and final absorbance reading compared to negative and positive controls, the percent inhibition of the bacterial strain by given peptide treatment was determined.

E. amylovora = conditions: 24 h, 10 μM
E. coli = experiment: Bacterial growth inhibition by OD600 absorbance, E. coli; type: cell-based, E. coli (DH5-alpha); conditions: peptide 10 μM, 24 hours at 37° C., OD 600 nm
Method: as §1, §2, §3, §4

Row | Sequence | growth inhibition, A. tumefaciens (A. tumefaciens) [%] | growth inhibition, X. citri (X. citri) [%] | growth inhibition, E. amylovora (E. amylovora) [%] | growth inhibition, E. coli (E. coli) [%]
1 | GMWSKILGHLIR [compound 137] | <90 | <90 | 100.00 | <90
2 | GWASSIGSILGKFAKGGAQAFLQPK [compound 44] | <90 | <90 | <90 | <90
3 | GWGDTFLKTMAKIAKVGPKLLHS [compound 48] | <90 | <90 | <90 | <90
4 | GWRTLLKKAEVKTVGKLALKHYL [compound 32] | <90 | <90 | <90 | <90
5 | IGKLFKRIVQRILKFLRNL [compound 63] | <90 | <90 | <90 | 97.14
6 | ILKKIWKPIKKLF [compound 109] | <90 | <90 | <90 | <90
7 | ILKKLLKKVKSI [compound 136] | <90 | <90 | <90 | <90
8 | INLKKLAARIKKKI [compound 112] | <90 | 100.00 | <90 | <90
9 | INWKKIKKKVAGML [compound 108] | <90 | 100.00 | 95.63 | <90
10 | INWLKIAKKVKGML [compound 111] | <90 | 100.00 | 100.00 | <90
11 | IRIKIRIKIRIK [compound 123] | <90 | <90 | <90 | <90
12 | IRVKIRVKIRVK [compound 128] | 97.32 | <90 | 99.30 | 100.00
13 | KIKWILKYWKWS [compound 106] | <90 | <90 | <90 | <90
14 | KKAAAAAAAAAAAAWAAAAAAKKKK [compound 70] | <90 | <90 | <90 | <90
15 | KKIGIWIGIKK [compound 141] | <90 | <90 | <90 | <90
16 | KKKKKKAAAFAAAAAFAAWAAFAAA [compound 51] | <90 | <90 | <90 | <90
17 | KKKKWKLFKKIGIGKFL [compound 75] | <90 | 100.00 | 100.00 | <90
18 | KKLLKLKLKWKK [compound 121] | <90 | 100.00 | <90 | <90

Row | Sequence | growth inhibition, A. tumefaciens (A. tumefaciens) [%] | growth inhibition, X. citri (X. citri) [%] | growth inhibition, E. amylovora (E. amylovora) [%] | growth inhibition, E. coli (E. coli) [%]
19 | KKLTLWLTLKK [compound 140] | <90 | <90 | <90 | <90
20 | KKPLLKKLLKKL [compound 133] | <90 | <90 | <90 | <90
21 | KKVVFKVKFK [compound 142] | <90 | <90 | <90 | <90
22 | KKWRKWLAKKKKK [compound 101] | <90 | <90 | <90 | <90
23 | KLKKIWWIKVKK [compound 116] | <90 | <90 | <90 | <90
24 | KLKKLLKKWLKLLKKLLK [compound 68] | <90 | <90 | <90 | 100.00
25 | KLLKQWPIGKLLKKLLKKLLK [compound 42] | 100.00 | 100.00 | <90 | 100.00
26 | KLLLKWKLKLLK [compound 126] | <90 | <90 | <90 | <90
27 | KLRKLFRKLLKLIRKLLR [compound 65] | <90 | <90 | <90 | 95.59
28 | KRIVARIKAFLR [compound 130] | <90 | <90 | 100.00 | <90
29 | KVVKQWPIGKVVKKVVKKVVK [compound 58] | <90 | <90 | <90 | <90
30 | KWKLFKKIGPGKFLHSAKKF [compound 60] | <90 | <90 | <90 | <90
31 | KWKLFKKIPLAKKF [compound 100] | <90 | <90 | <90 | <90
32 | KWKSFLKTFKSAKKTSLHTALKAISS [compound 26] | <90 | <90 | <90 | <90
33 | KWKSFLKTLKSPVKTVFYTALKPISS [compound 22] | 100.00 | 100.00 | 100.00 | 100.00
34 | KWLKKWLKWLKK [compound 102] | 100.00 | <90 | 100.00 | 100.00
35 | KWLLKLKLKLLK [compound 125] | <90 | <90 | <90 | <90
36 | LKKWWKTSKGLLGGLLGKVTSVIK [compound 34] | 100.00 | 100.00 | 100.00 | 100.00
